From patent US6187906A, “Methods to improve neural outcome” (Aukland Uniservices Limited, priority 1998, dated 2001)

Tests used:
[1] = tested on: mesencephalic neurons (dopaminergic); test: Dopamine uptake in 6-OHDA treated embryonic mesencephalic cultures (Experiment 8); assay type: cell-based, Wistar rat; conditions: 0.01-100 μM GPE, 4 μM 6-OHDA
Experimental: Wistar rat ventral mesencephali from E15 (E1=plug) fetuses were dissected, pooled, and gently dissociate by repeated trituration in 3 ml of sterile modified Krebs-Ringer medium (Gibco, Life Technologies Ltd., NZ) supplemented per liter with 50,000 IU penicillin, 50 mg streptomycin, 1.26 g NaHCO3, and 2.2 g glucose. 2 ml of media was added and the suspension allowed to stand for 7 minutes, after which the supernatant was centrifuged for 7 minutes at 350 xg. The pellet was resuspended in serum-containing media: MEM media with 50,000 IU penicillin, 50 mg streptomycin, 1.26 g NaHCO3 and 5% fetal calf serum (Gibco). Cells were seeded at 2.5-4.0×10^5 trypan-excluding viable cells/cm^2 in sterile 24 well plates precoated for two hours with 5 μg/ml poly-L lysine in H2 O. Cultures were allowed to recover for 24 h at 37° C. in a humidified 95% air: 5% CO2 incubator. […]
Cultures were assayed for dopamine uptake using a modified procedure of Prochiantz et al., 1981 (Nature, Vol. 293, No., 5833). […] The wells were then rinsed with 250 μl 1% Triton X-100 and the contents added to the appropriate scintillation vial containing 4 ml of Ready safe scintillation fluid (Beckman, Palo Alto, Calif.). […]

[2] = molecular target: IGF-1 receptor (Homo sapiens, UniProt P08069); conditions: cited from earlier work
[3] = tested on: TH positive neurons of the SNc; test: 6-OHDA lesion of medial forebrain bundle, TH neuron number and staining density in SNc (Experiment 6); assay type: in vivo
Experimental: A paired experimental design was used and the experimenter was blinded to the treatment groups. Eighteen male Wistar rats (50-60 days old, 280-310 g) were used for this study. 6-hydroxy dopamine (6-OHDA) was prepared as 8 μg in a base of 2 μl 0.9% saline containing 1% ascorbic acid. It was administered into the right medial forebrain bundle (MFB) using coordinates of AP +4.7 mm, R 1.6 mm, V -8 mm under anaesthesia of 3% halothane, 6-OHDA was injected into the right MFB using a Hamilton syringe (100 μl with a 30G needle) controlled by a microdialysis infusion pump at an infusion rate of 0.2 μl/minute. The infusion needle was then slowly withdrawn 5 minutes after infusion. The surgery procedures for the intracerebroventricular administration have been described by Guan et al (1993), Journal of Cerebral Blood Flow and Metab, 13, 609-616. Briefly, a guide cannula (21G, 6 mm) was fixed on the top of the dura with coordinates of AP +7.5 mm, R 1.5 mm immediately after the injection of 6-OHDA. Either GPE (3 μg/15 μl) or its vehicle were infused into the right lateral ventricle 2 hours later at an infusion rate of 2 μl/minute (Guan et al (1993)). Rats were then housed in a holding room with food and water ad libitum for the next 2 weeks.
The rats were then deeply anaesthetized with an overdose of pentobarbital and transcardially perfused with normal saline followed by 10% buffered formalin. The brains were removed from the skull and kept in the same fixative for the next 48 hours. A standard paraffin tissue preparation was used to process the tissue so that it could be used for immunohistochemistry. […]
The number of TH positive neurons on both sides of the SNc were counted using light microscopic examination (20×magnification) at three representative levels (AP +4.2, +3.8 mm and […]) (Paxinos, et al (1982) New York: Academic Press).
The average density from the background was also measured. […] The difference in average density between the background and TH immunostaining was calculated and used for data analysis. […]

[4] = tested on: substantia nigra neurons; test: Medial forebrain bundle transection, TH immunopositive cell survival (Experiment 7); assay type: in vivo, Wistar rats; conditions: lesioned side; daily supranigral GPE 0.3 μg for two weeks
Experimental: Adult male Wistar rats (200-220 g) were anaesthetized with 75 mg/kg Nembutal and positioned in a stereotaxic apparatus. Unilateral transection of the medial forebrain bundle which contains the ascending nigral dopaminergic projection fibers was made 1.3 mm rostral to the rostral tip of the substantia nigra using a retractable wire knife (David Kopf Instruments, Tujunga, Calif.). The knife was lowered into the brain using the following coordinates from the atlas of Paxinos and Watson (1996), Sydney: Academic Press: 3.3 mm posterior to Bregma, 2.4 mm lateral from midline, and 8.5 mm ventral from skull, the blade was extended 2.0 mm toward midline, raised 2.5 mm dorsally, retracted and extended again, and then returned 2.5 mm ventrally. The wire blade was retracted and the knife withdrawn. Next, a 22-gauge metal guide cannula was permanently fixed into place supranigrally at 5.0 mm posterior to Bregma, 2.0 mm lateral to midline, and 6.8 mm ventral to skull. A second set of intact unlesioned rats were cannulated supranigrally at the same coordinates. […]
Immunopositive cells were counted in the central substantia nigra. […] To reveal percent survival, percent changes were calculated by dividing the ipsilateral value by contralateral value.

IGF-1 receptor, sequence (P08069 31-736 limits assumed): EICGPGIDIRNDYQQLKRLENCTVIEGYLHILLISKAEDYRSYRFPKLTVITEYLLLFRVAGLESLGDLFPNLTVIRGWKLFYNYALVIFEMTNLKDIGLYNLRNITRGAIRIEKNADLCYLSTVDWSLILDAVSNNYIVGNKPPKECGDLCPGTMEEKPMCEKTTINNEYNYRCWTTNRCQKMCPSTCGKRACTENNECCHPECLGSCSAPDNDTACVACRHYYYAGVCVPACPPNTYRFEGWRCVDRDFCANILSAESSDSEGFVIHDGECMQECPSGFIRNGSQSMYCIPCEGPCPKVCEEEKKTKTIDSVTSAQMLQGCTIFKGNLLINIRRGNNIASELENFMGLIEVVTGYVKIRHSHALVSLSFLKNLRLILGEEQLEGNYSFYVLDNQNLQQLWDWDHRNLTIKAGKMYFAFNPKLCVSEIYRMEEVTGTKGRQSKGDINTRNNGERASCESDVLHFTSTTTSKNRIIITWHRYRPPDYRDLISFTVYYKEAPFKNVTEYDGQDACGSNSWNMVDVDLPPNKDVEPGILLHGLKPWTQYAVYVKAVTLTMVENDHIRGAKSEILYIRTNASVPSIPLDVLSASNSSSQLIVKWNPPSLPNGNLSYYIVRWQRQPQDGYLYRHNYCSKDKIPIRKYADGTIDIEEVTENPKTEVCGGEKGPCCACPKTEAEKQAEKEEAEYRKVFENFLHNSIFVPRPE
IGF-1 receptor, sequence (P08069 741-1367 partner limits assumed): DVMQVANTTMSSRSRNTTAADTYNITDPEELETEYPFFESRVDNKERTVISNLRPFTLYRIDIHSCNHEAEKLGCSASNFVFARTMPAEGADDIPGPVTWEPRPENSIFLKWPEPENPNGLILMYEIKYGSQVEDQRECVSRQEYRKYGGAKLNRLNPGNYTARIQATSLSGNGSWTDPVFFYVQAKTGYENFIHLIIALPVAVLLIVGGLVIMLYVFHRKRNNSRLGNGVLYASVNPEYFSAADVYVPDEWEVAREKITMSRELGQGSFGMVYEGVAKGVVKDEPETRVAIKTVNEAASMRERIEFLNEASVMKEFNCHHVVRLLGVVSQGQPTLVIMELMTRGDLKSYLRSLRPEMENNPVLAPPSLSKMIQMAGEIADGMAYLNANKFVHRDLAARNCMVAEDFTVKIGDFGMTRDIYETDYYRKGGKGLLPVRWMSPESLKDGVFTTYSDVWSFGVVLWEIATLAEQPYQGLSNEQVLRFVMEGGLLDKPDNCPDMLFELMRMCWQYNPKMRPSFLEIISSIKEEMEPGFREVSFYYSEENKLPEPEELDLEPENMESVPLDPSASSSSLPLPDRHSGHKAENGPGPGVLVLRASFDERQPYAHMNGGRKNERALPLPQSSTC

NCC(=O)N1CCC[C@H]1C(=O)N[C@@H](CCC(=O)O)C(=O)O [GPE, gly-pro-glu]
protection from 6-OHDA toxicity (dopamine uptake) [1]: protects mesencephalic neurons
binding to the IGF-1 receptor [2]: does not
TH immunoreactivity (density of TH immunostaining, R/L) ([3]; caudal levels, 3 μg GPE, vehicle 16±11.2, mean ±SEM): 99.6±27%
neurons remaining in the ipsilateral SNc ([3]; caudal levels, GPE 3 μg, vehicle 16.3±11.5): over 60.9±13.0%
TH immunoreactivity (density of TH immunostaining) ([3]; lesioned (right) side, 3 μg GPE icv 2 hours after 6-OHDA, 2 weeks): restored
percent cell survival of TH immunopositive neurons [4]: increased
